{"source": "PubChem BioAssay AID1421", "about": "(Emory University Molecular Libraries Screening Center, 2008)", "note": "“And” between values parts separate entries of the source, which are not always exact repeats. Equal values may be shown once. The source made the active and inactive calls. How the calls were made is not given here."}
{"molecular_target": "Prostaglandin E2 receptor EP2 subtype (Homo sapiens) (UniProt P43116)", "sequence (P43116 whole entry, looked up)": "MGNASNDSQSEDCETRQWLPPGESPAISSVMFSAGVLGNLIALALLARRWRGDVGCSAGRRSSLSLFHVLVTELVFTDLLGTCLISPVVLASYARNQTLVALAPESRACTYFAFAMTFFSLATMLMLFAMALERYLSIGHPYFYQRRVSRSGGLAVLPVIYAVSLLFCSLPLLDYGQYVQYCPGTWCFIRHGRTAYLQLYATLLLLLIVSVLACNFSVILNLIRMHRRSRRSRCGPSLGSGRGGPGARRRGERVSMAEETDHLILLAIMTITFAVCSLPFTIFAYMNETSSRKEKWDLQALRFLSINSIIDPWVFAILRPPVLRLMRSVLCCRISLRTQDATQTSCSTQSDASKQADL", "assay": "compounds shifting PGE2 potency at EP2 – cell-based, human EP2, PGE2 EC50 shift, dose response (AID 1421)", "details": "EP2-expressing cells, PGE2 EC50 shift by compound"}
{"smiles": "Cc1nn2c(c1-c1ccccc1)N=C(c1ccco1)CC2c1ccccc1", "note": "(stereo unspecified)", "outcome": "active"}
{"smiles": "CSc1ccccc1NC(=O)CN(C)Cc1cccc(Cl)c1", "outcome": "active"}
{"smiles": "CCOC(=O)C1=C(CN2CCc3ccccc32)NC(=O)NC1c1ccc(Cl)cc1", "note": "(stereo unspecified)", "outcome": "active"}
{"smiles": "COc1ccccc1CNc1cc(C)ccc1C", "outcome": "active"}
{"smiles": "O=C(NCc1ccc(F)cc1)c1ccccc1OCc1ccccc1", "outcome": "active"}
{"molecular_target": "Prostaglandin E2 receptor EP2 subtype (Homo sapiens) (UniProt P43116)", "assay": "compounds shifting PGE2 potency at EP2 – cell-based, human EP2, PGE2 EC50 shift, dose response (AID 1421)", "details": "EP2-expressing cells, PGE2 EC50 shift by compound; measured here: PGE2 EC50 at 6.7 uM compound"}
{"smiles": "CC1CCN(c2ccccc2NC(=O)c2ccc(F)cc2)CC1", "PGE2 EC50 with compound": "0.69 nM"}
{"smiles": "O=C(O)c1oc(C(=O)O)c(C(=O)O)c1C(=O)O", "PGE2 EC50 with compound": "1.51 nM"}
{"smiles": "Cc1cccc(Oc2sc(C(=O)c3ccccc3)c(N)c2C#N)c1", "PGE2 EC50 with compound": "1.51 nM"}
{"smiles": "C/C(CCC(C)C)=N\\NC(=S)NCc1ccccc1", "PGE2 EC50 with compound": "0.88 nM"}
{"smiles": "O=C(O)CCSc1ccc2ccccc2n1", "PGE2 EC50 with compound": "2.87 nM and 2.98 nM"}
{"smiles": "CCSc1nc2ccccc2n1Cc1ccccc1F", "PGE2 EC50 with compound": "0.94 nM"}
{"smiles": "CCOC(=O)CCCCCCCCCCCCC1C=CCC1", "note": "(stereo unspecified)", "PGE2 EC50 with compound": "0.96 nM"}
{"smiles": "CCOP(=O)(OCC)c1nc(-c2cccc3ccccc23)oc1NCc1ccccc1", "PGE2 EC50 with compound": "2.48 nM"}
{"smiles": "Cc1nn2c(N3CCCC3)cc(C(C)C)nc2c1-c1ccccc1", "PGE2 EC50 with compound": "0.84 nM"}
{"smiles": "NC(=O)CSc1nnc(-c2cccc(S(=O)(=O)N3CCOCC3)c2)n1C1CCCCCC1", "PGE2 EC50 with compound": "1.37 nM"}
{"smiles": "CCOC(=O)c1c(C2CC2)csc1NC(=O)CSCc1c(C)noc1C", "PGE2 EC50 with compound": "1.25 nM"}
{"smiles": "CCN(Cc1ccccc1)C(c1cc2cc(C)cc(C)c2[nH]c1=O)c1nnnn1CCOC", "note": "(stereo unspecified)", "PGE2 EC50 with compound": "1.28 nM"}
{"smiles": "Cc1ccccc1NC1=C(C(=O)c2ccccc2)N(C)S(=O)(=O)c2ccccc21", "PGE2 EC50 with compound": "1.01 nM"}
{"smiles": "COc1cnc(N(C)C)nc1Sc1cccc(Cl)c1", "PGE2 EC50 with compound": "1.13 nM"}
{"smiles": "COc1ccc(N2CCN(c3nc4c(c(=O)[nH]c(=O)n4C)n3Cc3cccc(C)c3)CC2)cc1", "PGE2 EC50 with compound": "0.7 nM"}
{"smiles": "N#Cc1sc2nc(C3CC3)cc(-c3ccc(Cl)cc3)c2c1N", "PGE2 EC50 with compound": "0.81 nM"}
{"smiles": "O=C(Cc1ccc(Br)cc1)Nc1ccccc1Sc1ccccc1", "PGE2 EC50 with compound": "1.2 nM"}
{"smiles": "O=C1CCCc2ccccc2N1Cc1c(Cl)cccc1Cl", "PGE2 EC50 with compound": "1.04 nM"}
{"smiles": "COc1ccc(-c2cc(-c3n[nH]c(=S)n3-c3cccc4ccccc34)[nH]n2)cc1", "PGE2 EC50 with compound": "1.74 nM"}
{"smiles": "C[C@H](CN(C)C)C(=O)c1ccccc1C(=O)O", "PGE2 EC50 with compound": "1.41 nM"}
{"smiles": "NC(=O)c1sc2nc(N3CCCCC3)c3c(c2c1N)CCCC3", "PGE2 EC50 with compound": "2.62 nM"}
{"smiles": "CCc1c(C)nc2ccc(Br)cc2c1SCCC#N", "PGE2 EC50 with compound": "2.61 nM"}
{"smiles": "CC(=O)c1cc(C#N)c(SCc2ccccc2)nc1C", "PGE2 EC50 with compound": "0.83 nM"}
{"smiles": "Cc1cc(O)c(C=O)c2c1C(=O)Oc1c(C)c(O)c3c(c1O2)C(O)OC3=O", "note": "(stereo unspecified)", "PGE2 EC50 with compound": "0.76 nM"}
{"smiles": "Clc1ccc(-c2nc3ccccn3c2CN2CCCCC2)cc1", "PGE2 EC50 with compound": "1.26 nM"}
{"smiles": "CC1(c2ccccc2)CC(C)(C)N(C(=O)C2CCCO2)c2ccccc21", "note": "(stereo unspecified)", "PGE2 EC50 with compound": "0.9 nM"}
{"smiles": "Cc1cccc(-n2c(=S)[nH]c3c(oc4ccccc43)c2=O)c1", "PGE2 EC50 with compound": "2.78 nM"}
{"smiles": "Cc1nn2c(c1-c1ccccc1)N=C(c1ccco1)CC2c1ccccc1", "note": "(stereo unspecified)", "PGE2 EC50 with compound": "0.8 nM"}
{"smiles": "O=c1nc(-c2ccccc2)cc(-c2ccccc2)[nH]1", "PGE2 EC50 with compound": "2.21 nM"}
{"smiles": "CC1(C)Cc2c(C#N)c(N3CCCC3)nc(-c3ccco3)c2CO1", "PGE2 EC50 with compound": "2.33 nM"}
{"smiles": "O=c1c2c(nc3n1CCCCC3)-c1ccccc1CC21CCCCC1", "PGE2 EC50 with compound": "1.25 nM"}
{"smiles": "Cc1nnc(SCC(=O)N2c3ccccc3C(C)(c3ccccc3)CC2(C)C)s1", "note": "(stereo unspecified)", "PGE2 EC50 with compound": "0.85 nM"}
{"smiles": "CCOP(=O)(OCC)c1nc(-c2ccc(F)cc2)oc1NCc1ccccc1", "PGE2 EC50 with compound": "1.09 nM"}
{"smiles": "CCOC(=O)c1c(-c2ccc(C)cc2)csc1NC(=O)c1ccc(N2C(=O)CCC2=O)cc1", "PGE2 EC50 with compound": "1.5 nM"}
{"smiles": "CCOC(=O)N1CCC(=C2c3ccc(Cl)cc3CCc3cccnc32)CC1", "PGE2 EC50 with compound": "0.95 nM"}
{"smiles": "COc1cc(OC)c(OC)cc1CNCCc1ccc(OC)c(OC)c1", "PGE2 EC50 with compound": "1.3 nM"}
{"smiles": "COc1ccc(C)c(Cn2c(-c3nonc3N)nc3ccccc32)c1", "PGE2 EC50 with compound": "0.86 nM"}
{"smiles": "CC1=C[N+](=O)c2ccccc2[N+]1=O", "PGE2 EC50 with compound": "0.94 nM"}
{"smiles": "Cc1ccc(S(=O)(=O)NCC(=O)N(c2ccccc2)C(C(=O)NCc2ccccc2)c2ccco2)cc1", "note": "(stereo unspecified)", "PGE2 EC50 with compound": "1 nM"}
{"smiles": "COC(=O)c1sccc1NC(=O)c1cccc(OC)c1", "PGE2 EC50 with compound": "1.42 nM"}
{"smiles": "Cc1ccc2nc(-c3ccncc3)cc(-c3ccccc3)c2c1", "PGE2 EC50 with compound": "0.31 nM"}
{"smiles": "CCCc1nc(SC2CCCC2)c2c(=O)n(C)c(=O)n(C)c2n1", "PGE2 EC50 with compound": "0.75 nM"}
{"smiles": "N#Cc1c(N)nc2c3c(sc(=N)c2c1N)NC(=O)CC3c1c(F)cccc1Cl", "note": "(stereo unspecified)", "PGE2 EC50 with compound": "0.74 nM"}
{"smiles": "O=C(O)c1ccc(C(=O)O)c(C(=O)Nc2ccc3c(c2)Cc2ccccc2-3)c1", "PGE2 EC50 with compound": "2.77 nM"}
{"smiles": "C=CCc1cc(C=C2C(=O)N(C)C(=O)N(C)C2=O)cc(OCC)c1OCc1ccccc1", "PGE2 EC50 with compound": "0.94 nM"}
{"smiles": "COc1ccccc1-c1nnc(SCC(=O)c2ccc(C3CCCCC3)cc2)n1Cc1ccco1", "PGE2 EC50 with compound": "0.71 nM"}
{"smiles": "Cn1c(=O)[nH]c(=O)c2c1nc(CN1CCN(c3ccccc3F)CC1)n2CCCc1ccccc1", "PGE2 EC50 with compound": "0.83 nM"}
{"smiles": "COc1ccc(-c2csc3nc(C)nc(N4CCC(C)CC4)c23)cc1OC", "PGE2 EC50 with compound": "0.95 nM"}
{"smiles": "CSc1ccccc1NC(=O)CN(C)Cc1cccc(Cl)c1", "PGE2 EC50 with compound": "0.97 nM"}
{"smiles": "CCOC(=O)C1=C(CN2CCc3ccccc32)NC(=O)NC1c1ccc(Cl)cc1", "note": "(stereo unspecified)", "PGE2 EC50 with compound": "1.21 nM"}
{"smiles": "COc1cc2c(cc1OC)CN(c1ccc(-c3ccccc3OC)nn1)CC2", "PGE2 EC50 with compound": "1.64 nM"}
